Reference: ChEMBL document CHEMBL2401737 (J Med Chem, 2013)

Legend:
[1] = test system: Human immunodeficiency virus; assay: Antiviral activity against Human immunodeficiency virus harboring integrase Q148K mutant infected in human HeLa cells expressing CD4 after 2 days by beta galactosidase assay relative to wild type HIV; type: functional
[2] = test system: Human immunodeficiency virus; assay: Antiviral activity against pseudo Human immunodeficiency virus infected in HEK293T cells after 2 days in presence of human serum albumin; type: functional, organism-based; conditions: Human immunodeficiency virus 1, HEK-293T, 48 h
[3] = test system: Human immunodeficiency virus; assay: Antiviral activity against pseudo Human immunodeficiency virus infected in HEK293T cells after 2 days; type: functional, organism-based; conditions: Human immunodeficiency virus 1, HEK-293T, 48 h
[4] = test system: Human immunodeficiency virus; assay: Ratio of IC50 for pseudo Human immunodeficiency virus to IC50 for pseudo Human immunodeficiency virus in presence of human serum albumin; type: functional
[5] = Clearance in iv dosed rat; type: ADME, organism-based; conditions: in vivo
[6] = Oral bioavailability in rat; type: ADME, organism-based; conditions: in vivo

Compound | fold change (FC) [1] | IC50 [2] | IC50 [3] | Ratio IC50 [4] | clearance [5] | bioavailability [6]
O=C(NCc1ccc(F)cc1F)c1cn2c(c(O)c1=O)C(=O)N1[C@H](Cc3ccccc3)CO[C@H]1C2 | 19 | 4.5 nM | 0.6 nM | >7 |  | 
O=C(NCc1ccc(F)cc1F)c1cn2c(c(O)c1=O)C(=O)N1[C@@H](Cc3ccc(O)cc3)CO[C@@H]1C2 | 1.6 | 22 nM | 2.1 nM |  |  | 
O=C(NCc1ccc(F)cc1F)c1cn2c(c(O)c1=O)C(=O)N1[C@@H](Cc3c[nH]c4ccccc34)CO[C@@H]1C2 | 22 | 71 nM | 1.6 nM |  |  | 
O=C(NCc1ccc(F)cc1)c1cn2c(c(O)c1=O)C(=O)N1CCCO[C@H]1C2 | 2.4 | 81 nM | 1.9 nM | 43 | 0.1 mL/min/kg | 79%
O=C(NCc1ccc(F)cc1)c1cn2c(c(O)c1=O)C(=O)N1CCCO[C@@H]1C2 | 11 | 9.4 nM | 2.2 nM |  | 0.17 mL/min/kg | 52%
C[C@H]1CCN2C(=O)c3c(O)c(=O)c(C(=O)NCc4ccc(F)cc4)cn3C[C@H]2O1 |  | 3.3 nM | 1.3 nM |  |  | 
C[C@@H]1CCN2C(=O)c3c(O)c(=O)c(C(=O)NCc4ccc(F)cc4F)cn3C[C@@H]2O1 | 2.1 | 7 nM | 0.9 nM |  |  | 
C[C@H]1CCN2C(=O)c3c(O)c(=O)c(C(=O)NCc4ccc(F)cc4F)cn3C[C@H]2O1 | 2.8 | 1.5 nM | 0.5 nM |  |  | 
CC[C@@H]1CCN2C(=O)c3c(O)c(=O)c(C(=O)NCc4ccc(F)cc4F)cn3C[C@@H]2O1 | 4.6 | 9.4 nM | 0.7 nM |  |  | 
CC[C@H]1CCN2C(=O)c3c(O)c(=O)c(C(=O)NCc4ccc(F)cc4F)cn3C[C@H]2O1 | 2.2 | 3.1 nM | 0.5 nM |  |  | 
CC(C)[C@@H]1CCN2C(=O)c3c(O)c(=O)c(C(=O)NCc4ccc(F)cc4F)cn3C[C@@H]2O1 | 8.1 | 20 nM | 2 nM |  |  | 
CC(C)[C@H]1CCN2C(=O)c3c(O)c(=O)c(C(=O)NCc4ccc(F)cc4F)cn3C[C@H]2O1 | 1.9 | 4.1 nM | 0.7 nM |  |  | 
COC[C@@H]1CCN2C(=O)c3c(O)c(=O)c(C(=O)NCc4ccc(F)cc4F)cn3C[C@@H]2O1 | 5 | 2.3 nM | 1.4 nM | 2 |  | 
COC[C@H]1CCN2C(=O)c3c(O)c(=O)c(C(=O)NCc4ccc(F)cc4F)cn3C[C@H]2O1 | 3.5 | 0.9 nM | 0.4 nM | 2 |  | 
O=C(NCc1ccc(F)cc1F)c1cn2c(c(O)c1=O)C(=O)N1CC[C@@H](c3ccccc3)O[C@H]1C2 | 8.5 | 50 nM | 5.6 nM |  |  | 
C[C@@H]1CO[C@H]2Cn3cc(C(=O)NCc4ccc(F)cc4)c(=O)c(O)c3C(=O)N2C1 | 36 | 210 nM | 0.8 nM |  |  | 
C[C@H]1CO[C@@H]2Cn3cc(C(=O)NCc4ccc(F)cc4)c(=O)c(O)c3C(=O)N2C1 | 9.9 | 5.6 nM | 0.7 nM |  |  | 
C[C@H]1CO[C@@H]2Cn3cc(C(=O)NCc4ccc(F)cc4F)c(=O)c(O)c3C(=O)N2C1 | 5.7 | 5.2 nM | 0.5 nM |  |  | 
CC1(C)CO[C@@H]2Cn3cc(C(=O)NCc4ccc(F)cc4)c(=O)c(O)c3C(=O)N2C1 | 8.1 | 7.9 nM | 2 nM |  |  | 
CC1(C)CO[C@H]2Cn3cc(C(=O)NCc4ccc(F)cc4)c(=O)c(O)c3C(=O)N2C1 | 3.6 | 440 nM | 1.1 nM |  |  | 

Compound | fold change (FC) [1] | IC50 [2] | IC50 [3] | Ratio IC50 [4] | clearance [5] | bioavailability [6]
C[C@H]1CCO[C@@H]2Cn3cc(C(=O)NCc4ccc(F)cc4F)c(=O)c(O)c3C(=O)N12 | 2.2 | 4 nM | 0.5 nM |  |  | 
C[C@H]1CO[C@@H]2Cn3cc(C(=O)NCc4ccc(F)cc4)c(=O)c(O)c3C(=O)N12 | 13 | 50 nM | 2.1 nM |  |  | 
C[C@@H]1CO[C@H]2Cn3cc(C(=O)NCc4ccc(F)cc4F)c(=O)c(O)c3C(=O)N12 | 35 | 39 nM | 5.4 nM | >7 |  | 
CC[C@H]1CO[C@@H]2Cn3cc(C(=O)NCc4ccc(F)cc4F)c(=O)c(O)c3C(=O)N12 |  | 63 nM | 0.9 nM |  |  | 
CC[C@@H]1CO[C@H]2Cn3cc(C(=O)NCc4ccc(F)cc4F)c(=O)c(O)c3C(=O)N12 | 63 | 35 nM | 8.5 nM |  |  | 
CC(C)[C@H]1CO[C@@H]2Cn3cc(C(=O)NCc4ccc(F)cc4F)c(=O)c(O)c3C(=O)N12 | 100 | 300 nM | 4.8 nM |  |  | 
CC(C)[C@@H]1CO[C@H]2Cn3cc(C(=O)NCc4ccc(F)cc4F)c(=O)c(O)c3C(=O)N21 | 73 | 16 nM | 4 nM |  |  | 
CC[C@H](C)[C@H]1CO[C@@H]2Cn3cc(C(=O)NCc4ccc(F)cc4F)c(=O)c(O)c3C(=O)N12 | 200 | 200 nM | 20 nM |  |  | 
CC(C)(C)[C@H]1CO[C@@H]2Cn3cc(C(=O)NCc4ccc(F)cc4)c(=O)c(O)c3C(=O)N21 | 74 | 35 nM | 4 nM |  |  | 
CC(C)(C)[C@H]1CO[C@@H]2Cn3cc(C(=O)NCc4ccc(F)cc4F)c(=O)c(O)c3C(=O)N21 | 130 | 130 nM | 20 nM |  |  | 
CC(C)C[C@@H]1CO[C@H]2Cn3cc(C(=O)NCc4ccc(F)cc4F)c(=O)c(O)c3C(=O)N12 | 51 | 16 nM | 3.2 nM |  |  | 
CCCC[C@H]1CO[C@@H]2Cn3cc(C(=O)NCc4ccc(F)cc4F)c(=O)c(O)c3C(=O)N12 | >57 | 1800 nM | 87 nM |  |  | 
O=C(NCc1ccc(F)cc1F)c1cn2c(c(O)c1=O)C(=O)N1[C@@H](CC3CCCCC3)CO[C@@H]1C2 | >15 | 3100 nM | 330 nM |  |  | 
O=C(NCc1ccc(F)cc1F)c1cn2c(c(O)c1=O)C(=O)N1[C@@H](CO)CO[C@@H]1C2 | 12 | 37 nM | 10 nM |  |  | 
CSCC[C@H]1CO[C@@H]2Cn3cc(C(=O)NCc4ccc(F)cc4F)c(=O)c(O)c3C(=O)N12 |  | 18 nM | 3.1 nM |  |  | 
CS(=O)(=O)CC[C@H]1CO[C@@H]2Cn3cc(C(=O)NCc4ccc(F)cc4F)c(=O)c(O)c3C(=O)N12 | >10 | 370 nM | 430 nM |  |  | 
O=C(NCc1ccc(F)cc1F)c1cn2c(c(O)c1=O)C(=O)N1[C@@H](c3ccccc3)CO[C@@H]1C2 | 44 | 620 nM | 72 nM |  |  | 
O=C(NCc1ccc(F)cc1F)c1cn2c(c(O)c1=O)C(=O)N1[C@@H](Cc3ccccc3)CO[C@@H]1C2 | 13 | 380 nM | 13 nM |  |  | 
O=C(NCc1ccc(F)cc1)c1cn2c(c(O)c1=O)C(=O)N1CCCOC1C2 (racemic) | 2.8 | 20 nM | 1.9 nM |  | 0.1 mL/min/kg | 51%
Cc1nnc(C(=O)NC(C)(C)c2nc(C(=O)NCc3ccc(F)cc3)c([O-])c(=O)n2C)o1.[K+] [RALTEGRAVIR POTASSIUM] | 79 | 7.1 nM | 2 nM | 77 |  | 
